Test results reported in patent US20100190184A1, “SCREENING METHOD UTILIZING NOVEL SUBSTRATE C-RET FOR GAMMA-SECRETASE” (Eisai R & D Management Co., Ltd., priority 2007, published 2010).

Molecular target: T1, γ-secretase (cleavage of rat c-Ret with HA tag in HEK293 cells) (Homo sapiens, UniProt P49768)
T1 construct: endogenous in cells; host or cells: 293/EBNA-1 cell strain (HEK293), transiently transfected with rat c-Ret-HA only
Experiment: Analysis of c-Ret processing in c-Ret-transfected 293/EBNA-1 cell strain (Western blotting with anti-HA antibody)
Assay type: cell-based
Parameters: dose or concentration left out as unconfirmed
Details: Compound E added to culture broth, one day; 293/EBNA-1 (HEK293) cells transfected with rat c-Ret-HA; versus untreated sample
Procedure: Whether or not c-Ret is a substrate for γ-secretase was evaluated using HEK293 cells expressing a gene encoding c-Ret with an HA tag added to its C-terminus, in the presence of a γ-secretase inhibitor. As the γ-secretase inhibitor, (2S)-2-{[(3,5-difluorophenyl)acetyl]amino}-N-[(3S)-1-methyl-2-oxo-5-phenyl-2,3-dihydro-1H-1,4-benzodiazepin-3-yl]propanamide (hereinafter, sometimes referred to as “Compound E”) (Alexis Biochemicals) was used. 293/EBNA-1 cell strain (Invitrogen) was cultured in 6-well dishes containing 10% FBS (Hyclone)/DMEM (Invitrogen) under 5% CO2 at 37° C., followed by transfection thereinto of the gene encoding rat c-Ret with an HA tag added to its C-terminus using Lipofectamine 2000 (Invitrogen). After one day culture under the same conditions, 50 mM Compound E (Alexis Biochemicals) was added to the culture broth. Cells were cultured for another day under the same conditions. Then, the transfected HEK293 cells were collected with PBS (Sigma) and sonicated with a sonicator (Taitec VP-5S) to disrupt cells. Then, the quantity of protein was determined with Protein Assay Kit (BioRad). Samples (2 μg each) were taken from proteins obtained from Compound E-added cells and Compound E-not added cells, respectively, and subjected to SDS-PAGE, followed by Western blotting with an anti-HA antibody (Roche) (final concentration: 0.2 μg/ml). […]

SMILES: C[C@H](NC(=O)Cc1cc(F)cc(F)c1)C(=O)N[C@H]1N=C(c2ccccc2)c2ccccc2N(C)C1=O [Compound E, (2S)-2-{[(3,5-difluorophenyl)acetyl]amino}-N-[(3S)-1-methyl-2-oxo-5-phenyl-2,3-dihydro-1H-1,4-benzodiazepin-3-yl]propanamide]
- effect on cleavage of c-Ret by γ-secretase (c-Ret C terminal fragment band, Western blot): a band around 50 kDa (CTF) was accumulated specifically as a c-Ret undegraded product
